From publication PMC10099813, “Stafiba: A STAT5‐Selective Small‐Molecule Inhibitor” (Chembiochem, 2022)

What was measured:
STAT5a = target: T1, STAT5a (Homo sapiens, UniProt P42229); test: Competitive fluorescence polarization (FP) binding assay, STAT5a SH2 domain; settings: for Ki / IC50: FP assay, 2 % DMSO (10 % DMSO for 10); for Ki: Ki calculated from IC50 (n=3) via published equation; for IC50: n=3 unless stated
T1 sequence (P42229 1-794): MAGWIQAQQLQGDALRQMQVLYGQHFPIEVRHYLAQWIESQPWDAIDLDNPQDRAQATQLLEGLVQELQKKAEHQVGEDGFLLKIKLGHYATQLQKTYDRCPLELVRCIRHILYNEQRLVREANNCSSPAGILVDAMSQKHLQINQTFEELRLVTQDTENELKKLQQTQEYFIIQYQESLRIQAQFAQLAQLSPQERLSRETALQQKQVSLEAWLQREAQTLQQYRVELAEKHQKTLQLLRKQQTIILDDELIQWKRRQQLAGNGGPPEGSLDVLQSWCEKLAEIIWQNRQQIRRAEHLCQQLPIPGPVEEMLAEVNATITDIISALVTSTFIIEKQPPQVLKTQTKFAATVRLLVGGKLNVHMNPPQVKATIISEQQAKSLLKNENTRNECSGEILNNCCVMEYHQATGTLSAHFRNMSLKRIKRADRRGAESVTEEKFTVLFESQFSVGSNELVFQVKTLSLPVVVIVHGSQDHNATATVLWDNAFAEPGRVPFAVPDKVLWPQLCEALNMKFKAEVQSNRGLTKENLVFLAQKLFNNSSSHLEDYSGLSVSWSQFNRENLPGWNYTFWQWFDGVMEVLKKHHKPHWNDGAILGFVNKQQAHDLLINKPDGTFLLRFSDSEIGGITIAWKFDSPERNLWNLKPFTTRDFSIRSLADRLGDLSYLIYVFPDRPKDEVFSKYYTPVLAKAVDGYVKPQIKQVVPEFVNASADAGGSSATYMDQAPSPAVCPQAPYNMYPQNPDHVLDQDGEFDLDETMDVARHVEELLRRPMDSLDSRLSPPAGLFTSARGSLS
Method: (§1) Fluorescence polarization assays: Competitive binding assays based on fluorescence polarization were carried out essentially as previously described.[[4a]] Unless stated otherwise, final concentrations of the buffer components were: 10 mM Tris (pH 8.0), 50 mM NaCl, 1 mM EDTA, 1 mM DTT, 0.1 % (v/v) Nonidet P‐40 substitute, and 2 % DMSO. Proteins were used at concentrations which reflect the Kd values of the interactions between the fluoropeptide and the protein preparations. Protein concentrations used for activity analysis of compound 5 were 91 nM for STAT1, 107 nM for STAT3, 28 nM for STAT4, 122 nM for STAT5a, 56 nM for STAT5b and 101 nM for STAT6. Protein concentrations used for activity analysis of AC‐4‐130 were 103 nM for STAT5a and 62 nM for STAT5b. […] Final concentration of all fluorescent‐labelled peptides was 10 nM. The following peptides were used in assays: 5‐carboxyfluorescein‐GpYDKPHVL for STAT1; 5‐carboxyfluorescein‐GpYLPQTV‐NH2 for STAT3; 5‐carboxyfluorescein‐GpYLPQNID for STAT4; 5‐carboxyfluorescein‐GpYLVLDKW for STAT5a/5b, and 5‐carboxyfluorescein‐GpYVPWQDLI for STAT6. Protein and test compounds were incubated for 1 h prior to addition of the fluorescein‐labeled peptide. Fluorescence polarization was measured after another 60 min using an Infinite F500 plate reader (Tecan). IC50 values were converted to Ki‐values using the published equation.[13]

STAT5b = target: T2, STAT5b (Homo sapiens, UniProt P51692); test: Competitive fluorescence polarization (FP) binding assay, STAT5b SH2 domain; settings: for Ki / IC50: FP assay, 2 % DMSO (10 % DMSO for 10); for Ki: Ki calculated from IC50 (n=3) via published equation; for IC50: n=3; for selectivity for STAT5b over STAT1, STAT3, and STAT6: FP assays
T2 sequence (P51692 1-787): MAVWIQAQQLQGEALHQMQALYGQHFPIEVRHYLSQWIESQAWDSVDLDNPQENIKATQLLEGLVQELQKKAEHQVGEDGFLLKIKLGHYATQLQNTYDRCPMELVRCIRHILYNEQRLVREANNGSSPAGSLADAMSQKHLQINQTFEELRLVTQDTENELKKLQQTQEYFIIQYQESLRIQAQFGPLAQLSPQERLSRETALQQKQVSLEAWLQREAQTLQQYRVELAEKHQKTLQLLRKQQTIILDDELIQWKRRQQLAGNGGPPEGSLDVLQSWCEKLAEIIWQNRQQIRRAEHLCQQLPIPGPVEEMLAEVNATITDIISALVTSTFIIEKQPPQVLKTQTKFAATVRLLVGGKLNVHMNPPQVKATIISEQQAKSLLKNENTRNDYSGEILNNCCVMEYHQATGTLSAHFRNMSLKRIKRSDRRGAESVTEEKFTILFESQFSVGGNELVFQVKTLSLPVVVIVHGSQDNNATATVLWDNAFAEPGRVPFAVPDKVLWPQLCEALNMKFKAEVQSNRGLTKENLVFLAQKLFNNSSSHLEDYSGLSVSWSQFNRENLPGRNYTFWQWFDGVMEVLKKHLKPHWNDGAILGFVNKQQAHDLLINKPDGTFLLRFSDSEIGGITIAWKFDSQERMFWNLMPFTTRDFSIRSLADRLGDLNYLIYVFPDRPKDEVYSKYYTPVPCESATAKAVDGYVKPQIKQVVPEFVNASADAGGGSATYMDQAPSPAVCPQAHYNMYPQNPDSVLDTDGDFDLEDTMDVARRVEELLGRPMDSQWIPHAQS
Method: as §1

STAT1 = target: T3, STAT1 (Homo sapiens, UniProt P42224); test: Competitive fluorescence polarization (FP) binding assay, STAT1; settings: for IC50: 2 % DMSO for 5, 10 % DMSO for 10; for Ki: Ki calculated from IC50, 2 % DMSO for 5, 10 % DMSO for 10
T3 sequence (P42224 1-750): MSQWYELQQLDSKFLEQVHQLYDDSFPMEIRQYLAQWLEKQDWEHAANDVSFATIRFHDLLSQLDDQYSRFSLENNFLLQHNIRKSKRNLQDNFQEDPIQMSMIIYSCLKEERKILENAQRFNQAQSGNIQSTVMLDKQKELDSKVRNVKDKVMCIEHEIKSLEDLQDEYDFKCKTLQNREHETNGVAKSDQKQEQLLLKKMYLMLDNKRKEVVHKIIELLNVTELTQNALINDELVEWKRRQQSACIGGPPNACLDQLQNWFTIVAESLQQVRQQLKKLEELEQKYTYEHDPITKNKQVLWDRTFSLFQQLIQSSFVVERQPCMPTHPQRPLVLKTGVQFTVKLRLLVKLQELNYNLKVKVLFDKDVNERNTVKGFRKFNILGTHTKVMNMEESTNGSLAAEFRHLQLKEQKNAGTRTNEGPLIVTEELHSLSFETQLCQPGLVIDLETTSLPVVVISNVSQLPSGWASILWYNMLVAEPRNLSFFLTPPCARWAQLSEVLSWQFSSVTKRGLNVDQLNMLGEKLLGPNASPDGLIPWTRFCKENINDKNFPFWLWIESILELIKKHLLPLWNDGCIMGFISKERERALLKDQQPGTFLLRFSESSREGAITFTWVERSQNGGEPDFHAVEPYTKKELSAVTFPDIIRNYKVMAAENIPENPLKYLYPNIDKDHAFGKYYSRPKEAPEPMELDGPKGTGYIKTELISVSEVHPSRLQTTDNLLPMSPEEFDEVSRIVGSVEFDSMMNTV
Method: as §1

| Structure (SMILES) | Ki (STAT5a) [µM] | IC50 (STAT5a) [µM] | Ki (STAT5b) [µM] | IC50 (STAT5b) [µM] | selectivity for STAT5b over STAT1, STAT3, and STAT6 (STAT5b) | IC50 (STAT1) [µM] | Ki (STAT1) [µM] | activity compared with AC-4-130 in FP assay against the SH2 domain of STAT5a (STAT5a; Figure 5C) | activity compared with AC-4-130 in FP assay against the SH2 domain of STAT5b (STAT5b; Figure 5C) |
| --- | --- | --- | --- | --- | --- | --- | --- | --- | --- |
| O=C(CNc1ccc(C(=O)Nc2ccc(Oc3ccccc3)cc2)cc1)NCc1cc(OP(=O)(O)O)cc(OP(=O)(O)O)c1 [compound 5] | 3.1 ± 0.1 | 6.4 ± 0.2 | 1.5 ± 0.1 | 3.1 ± 0.3 | more than tenfold | 70.4 ± 3.1 | 34.6 ± 1.5 | – | – |
| O=C(CNc1ccc(C(=O)Nc2ccc(Oc3ccccc3)cc2)cc1)NCc1cc(C(F)(F)P(=O)(O)O)c(F)c(C(F)(F)P(=O)(O)O)c1 [compound 10] | 3 ± 0.4 | 6.2 ± 0.7 | 1.8 ± 0.1 | 3.7 ± 0.2 | 10–20 fold | 53.8 ± 1.6 | 26 ± 0.8 | substantially more active than AC‐4‐130 | substantially more active than AC‐4‐130 |
